Experimental data: patent US12521439B2, “Methods and materials for modulating Nrf2 pathway” (The General Hospital Corporation, priority 2019, dated 2026)

What was measured:
GSCs (GBM8 and BT07) = assay: Multiplexed quantitative (TMT) proteomics after OBT treatment; assay type: cell-based, human; settings: 20 h after subtoxic dose, two GSC lines
Description: Quantitative Proteomics: Cell pellets were lysed in a buffer of 75 mM NaCl, 50 mM HEPES pH 8.5, 10 mM sodium pyrophosphate, 10 mM sodium fluoride, 10 mM β-glycerophosphate, 10 mM sodium orthovanadate, 10 mM PMSF, Roche complete mini EDTA free protease inhibitors (1 tablet per 20 ml), and 3% SDS. Lysis was achieved by passing the suspension through a 21-gauge needle 20 times. Proteins were prepared for proteomics analysis as described previously. […] Twelve fractions were analyzed by multiplexed quantitative proteomics performed on an Orbitrap Fusion mass spectrometer (Thermo Scientifc) using a Simultaneous Precursor Selection (SPS) based MS3 method. […] For the cell line samples only MS3 with an average signal-to-noise value of larger than 40 per reporter ion as well as with an isolation specificity of larger than 0.75 were considered for quantification. […] A two-step normalization of the protein TMT-intensities was performed by first normalizing the protein intensities over all acquired TMT channels for each protein based on the median average protein intensity calculated for all proteins. To correct for slight mixing errors of the peptide mixture from each sample a median of the normalized intensities was calculated from all protein intensities in each TMT channel and the protein intensities were normalized to the median value of these median intensities. […]

Keap1 = Keap1 (Homo sapiens, UniProt Q14145); assay: Keap1 immunoblotting / immunoprecipitation; assay type: cell-based; set-up: Keap1 protein levels in U87 cells treated with the indicated doses of OBT for 8 hours; endogenous in cells; host or cells: U87, MDA-MB-231 (endogenous); 293T and MDA-MB-231 also transfected with HA-Keap1
Description: Immunoblotting and Immunoprecipitation analysis: Antibodies against PDI, GAPDH, HA-tag, Ubiquitin, Keap1 and beta-actin (Cell Signaling) as well as secondary Horseradish peroxidase (HRP) conjugated antibodies: sheep anti-mouse IgG-HRP and donkey antirabbit IgG-HRP (Amersham Pharmacia Biotech) were used in this study. For protein expression analysis, cells were lysed in RIPA buffer (150 mM NaCl, 50 mM TRIS, pH 8.0, 1% NP-40, 0.5% deoxycholate, 0.1% SDS) supplemented with 1× protease inhibitors cocktail (Roche). Proteins were quantified using a Bradford protein determination assay (Bio-Rad) followed by electrophoresis in 10% NuPAGE Bis-Tris gels (Life Technologies) and transfer to nitrocellulose membranes (Bio-Rad). Membranes were incubated overnight with antibodies in 1-5% non-fat milk powder in PBS/0.5% TWEEN. Proteins were detected with SuperSignal West Pico Chemiluminescent Substrate (Pierce). For immunoprecipitation assays, cells were lysed in RIPA buffer supplemented with protease inhibitors and 2 mM N-ethylmaleimide. Cell lysates were pre-cleared with protein A agarose beads (Cell Signaling) and incubated with anti-HA antibody with gentle rocking overnight at 4° C. followed by incubation with protein A agarose beads and subsequent washing and elution steps. Electrophoresis, transfer and immunoblot analysis was performed as described above.

cancer cells = assay: Cancer cell death with OBT, JQ1, OBT-JQ1; assay type: cell-based; settings: OBT combined with JQ1, FIG. 22
Description: (§1) Cell viability: Cells were plated in 96-well plates and treated with the corresponding compounds. Cell viability was measured by adding 25 μl/well of CellTiter-Glo (Promega) followed by 10 minutes incubation and transfer to a white 96-well plate. Bioluminescence was quantified using Synergy HTX multimode reader (Biotek).

U87 glioma cells = assay: Cell viability (CellTiter-Glo), U87; assay type: cell-based, human; settings: shKeap1 vs shCtr1, four days
Description: Cell culture: MDA-MB-231 and U87 (U87-MG) cells were obtained from the American Type Culture Collection (ATCC). 293T human embryonic kidney fibroblasts were provided by Dr. Xandra Breakefield (Massachusetts General Hospital). All three cell lines were grown in Dulbecco's modified Eagle medium supplemented with 10% fetal bovine serum (Gemini Bio-products), 100 U penicillin, and 0.1 mg/mL streptomycin (Sigma). All cells were maintained at 37° C. in a humidified 5% CO2 incubator. GSCs were obtained from tumor tissues of GBM patients following surgical resection, under approval from the corresponding Institutional Review Board. These cells have been previously characterized (ref. 37-39) and were maintained in culture as neurospheres in Neurobasal medium (Gibco) supplemented with heparin (2 μg/mL; Sigma) and recombinant EGF (20 ng/mL) and bFGF-2 (10 ng/mL; Peprotech). Human Astrocytes were obtained from ScienCell and cultured in Astrocytes Medium (ScienCell)
as §1

Chain of Keap1 (Q14145 whole entry): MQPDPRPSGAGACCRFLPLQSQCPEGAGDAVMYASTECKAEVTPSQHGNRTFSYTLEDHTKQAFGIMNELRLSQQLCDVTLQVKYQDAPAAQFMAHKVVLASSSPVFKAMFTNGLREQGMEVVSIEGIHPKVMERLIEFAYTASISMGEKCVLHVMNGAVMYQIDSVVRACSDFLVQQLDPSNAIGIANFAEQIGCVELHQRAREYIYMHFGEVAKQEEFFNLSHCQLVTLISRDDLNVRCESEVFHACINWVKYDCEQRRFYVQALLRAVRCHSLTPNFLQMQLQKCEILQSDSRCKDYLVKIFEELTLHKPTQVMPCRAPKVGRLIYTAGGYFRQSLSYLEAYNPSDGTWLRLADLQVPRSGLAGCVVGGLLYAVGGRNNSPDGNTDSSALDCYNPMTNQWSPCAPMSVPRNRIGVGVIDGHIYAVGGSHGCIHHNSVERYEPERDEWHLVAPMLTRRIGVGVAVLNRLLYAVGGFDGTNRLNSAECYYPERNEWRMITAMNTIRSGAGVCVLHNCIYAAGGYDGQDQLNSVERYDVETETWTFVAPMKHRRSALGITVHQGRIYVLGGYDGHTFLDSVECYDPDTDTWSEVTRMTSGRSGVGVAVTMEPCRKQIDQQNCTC

SMILES: COC1=CC(=O)C(O)=C/C1=C/C=C/c1ccccc1 [OBT, (Z)-2-hydroxy-5-methoxy-4-((E)-3-phenylallylidene)cyclohexa-2,5-dien-1-one]
- heme oxygenase 1 (HMOX1; HO1) protein change (GSCs (GBM8 and BT07)): top upregulated protein
- ubiquitination of Keap1 (Keap1; 293T, OBT 2 μM, 6 hours, IP anti-HA): resulted in ubiquitination of Keap1
- OBT-mediated degradation of Keap1 with CUL3 downregulation or proteasome inhibitor (Keap1; MDA-MB-231, OBT 3 μM, 6 hours): prevented
- time at which Keap1 restored to physiological levels (Keap1; U87): 24 h
- earliest time of Keap1 decrease (Keap1; U87, following treatment with OBT): 4 h
- Keap1 protein levels (Keap1; U87, 1 μM time course, indicated doses 8 hours): time- and dose-dependent decrease
- interaction with JQ1 (cancer cells): synergizes
- cell death after silencing of Keap1 (U87 glioma cells): decreased cell death
